Measured values from PubChem BioAssay (NCI).
Where “and” joins values, the source holds several entries; their conditions need not be identical. Equal entries are not always repeated.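 Interpolation was linear, between the two tested concentrations surrounding the appropriate level; five concentrations were tested over 48 hours in 96-well plates. GI50 = concentration required for 50% inhibition of growth. At the TGI there is no net growth.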

Tests used:
Test in all cases: NCI tumour cell line growth inhibition, 48 h
HL-60(TB) leukemia = tested on: HL-60(TB) leukemia
CAKI-1 renal = tested on: CAKI-1 renal
EKVX NSCLC = tested on: EKVX NSCLC
HOP-92 NSCLC = tested on: HOP-92 NSCLC
OVCAR-4 ovarian = tested on: OVCAR-4 ovarian
HCC-2998 colon = tested on: HCC-2998 colon
HS 578T breast = tested on: HS 578T breast
SR leukemia = tested on: SR leukemia
BT-549 breast = tested on: BT-549 breast
U251 CNS = tested on: U251 CNS

Compound | GI50 (HL-60(TB) leukemia) | TGI (HL-60(TB) leukemia) | GI50 (CAKI-1 renal) [µM] | TGI (CAKI-1 renal) | GI50 (EKVX NSCLC) [µM] | TGI (EKVX NSCLC) [µM] | GI50 (HOP-92 NSCLC) | TGI (HOP-92 NSCLC) | GI50 (OVCAR-4 ovarian) | TGI (OVCAR-4 ovarian) | GI50 (HCC-2998 colon) | GI50 (HS 578T breast) | TGI (HS 578T breast) | GI50 (SR leukemia) | TGI (SR leukemia) | GI50 (BT-549 breast) | TGI (BT-549 breast) | GI50 (U251 CNS) | TGI (U251 CNS) | TGI (HCC-2998 colon)
N=c1ccn2c(n1)OC1C(O)C(CO)OC12 (stereo unspecified) | 0.763 µM | 69.7 µM and > 23.6 µM | 0.394 | 260 µM and > 100 µM | > 100 | > 1000 | 8.2 µM and 19.9 µM | > 811 µM | > 100 µM | > 1000 µM | 0.0303 µM | > 100 µM | > 1000 µM | 2.6 µM | > 231 µM | > 100 µM | > 1000 µM | 2.11 µM | > 1000 µM | –
O=C(c1ccc(F)c(F)c1Nc1ccc(I)cc1F)N1CC(O)([C@@H]2CCCCN2)C1 | < 0.0172 µM and 0.00962 µM | 2.33 µM and > 10 µM | 2.36 | 17.9 µM and > 10 µM | 0.308 | > 10 | 0.0207 µM and 0.0577 µM | 0.239 µM and 0.65 µM | 0.58 µM and > 3.96 µM | 17.1 µM and > 10 µM | < 0.015 µM and 0.0194 µM | 5.05 µM and > 6.42 µM | 29.3 µM and > 10 µM | 1.64 µM and 3.35 µM | 9.66 µM and > 10 µM | 7.52 µM and > 6.99 µM | 22 µM and > 10 µM | 0.492 µM and 0.958 µM | 17.9 µM and > 10 µM | 0.86 µM and 0.952 µM
Oc1cc(O)c2c(c1)OC(c1ccc(O)c(O)c1)C(OC1(c3cc(O)c(O)c(O)c3)Oc3cc(O)cc(O)c3C(O)C1O)C2 (stereo unspecified) | – | 52.8 µM | – | 81.1 µM | – | 41.6 | – | 84.4 µM | – | 67.3 µM | – | – | > 86.1 µM | – | 84.7 µM | – | > 83.6 µM | – | 46.2 µM | > 100 µM
CC(CC(=O)O)C(C(=O)O)C(=O)O (stereo unspecified) | – | > 100 µM | – | > 100 µM | – | > 100 | – | > 100 µM | – | > 100 µM | – | – | > 100 µM | – | > 100 µM | – | > 100 µM | – | > 100 µM | –
O=C(CC(O)(C(F)(F)F)C(F)(F)F)c1cc(CC(=O)C(O)(C(F)(F)F)C(F)(F)F)cc(CC(=O)C(O)(C(F)(F)F)C(F)(F)F)c1 | – | > 10 µM | – | 5.34 µM | – | > 9.06 | – | 3.35 µM | – | > 10 µM | – | – | > 10 µM | – | > 10 µM | – | 4.93 µM | – | 6.4 µM | 4.19 µM
COc1cc(C2c3cc4c(cc3C(O)C(CO)C2CO)OCO4)cc(OC)c1OC (stereo unspecified) | 0.322 µM | – | 3.09 | > 46.2 µM | 1.27 | > 71 | > 100 µM | > 100 µM | 7.6 µM | > 100 µM | 1.78 µM | 0.623 µM | – | 0.342 µM | > 48.5 µM | 1.92 µM | > 54.9 µM | 0.587 µM | > 100 µM | > 100 µM
COC1C(O)=C2C(=O)O/C(C)=C/C=C/C=C/C=C\CC(c3ccccc3)NC(=O)\C=C/C=C\C=C\C=C\[C@@]2(C)[C@@H]1O (stereo partly specified) | – | 0.0421 µM | – | 0.0582 µM | – | 0.279 | – | < 0.0199 µM | – | 1.85 µM | – | – | 0.0395 µM | – | 0.165 µM | – | 0.0201 µM | – | 0.0195 µM | 0.586 µM
CS(=O)(=O)CCCn1c(=O)c(Oc2ccc(F)cc2F)cc2cnc(NC3CCOCC3)nc21 | > 25 µM | > 25 µM | > 25 | > 25 µM | – | – | > 25 µM | > 25 µM | > 25 µM | > 25 µM | > 25 µM | > 25 µM | > 25 µM | > 25 µM | > 25 µM | > 25 µM | > 25 µM | > 25 µM | > 25 µM | > 25 µM
Nc1nccc2c1ccn2-c1ccc(NC(=O)c2ccc(N3CCOCC3)c(C(F)(F)F)c2)cc1 | 0.479 µM | – | 0.484 | 3.45 µM | 1.69 | 70.2 | 0.418 µM | 3.84 µM | 1.96 µM | 24.6 µM | 2.98 µM | 0.22 µM | 0.88 µM | 0.684 µM | > 100 µM | 1.03 µM | 24.7 µM | 0.341 µM | 5.19 µM | 29.1 µM
CC1(C)OCCn2c1nc1c(N3CCOCC3)nc(-c3cnc(N)nc3)nc12 | 0.141 µM | > 31.3 µM | – | – | 0.16 | 2.64 | 0.141 µM | 1.84 µM | 0.278 µM | 8.82 µM | 0.412 µM | 0.135 µM | 0.981 µM | 0.752 µM | > 83.6 µM | 0.183 µM | 2.91 µM | 0.673 µM | 34 µM | > 100 µM
Cc1cn2c(/C=C3\C(=O)Nc4ccc(O)cc43)c(-c3ccc(Cl)cc3)nc2s1 | 14.4 µM | 40.7 µM | 33.4 | 72.8 µM | 14.9 | 60.6 | – | – | 7.31 µM | 27.8 µM | – | 21.1 µM | 84.1 µM | 2.59 µM | 7.63 µM | 17.3 µM | 41.5 µM | 14.3 µM | 28.9 µM | –
Cc1ccc(Cl)cc1Nc1nc(C(F)(F)F)ccc1C(=O)N1CCN(c2cccc(Cl)c2)CC1 | 94.4 µM | > 100 µM | 26.4 | > 100 µM | 86.4 | > 100 | – | – | > 100 µM | > 100 µM | 17.8 µM | 47.9 µM | > 100 µM | 3.06 µM | > 100 µM | > 100 µM | > 100 µM | > 100 µM | > 100 µM | > 100 µM
CCOc1ccc2nc(S/C(=C/C=C(C#N)C#N)c3ccc(C)cc3)sc2c1 | 4.55 µM | 20.4 µM | 17.1 | 54.6 µM | > 100 | > 100 | – | – | 94.4 µM | > 100 µM | 25.1 µM | 32.2 µM | 88.4 µM | 2.92 µM | 7.43 µM | 25.6 µM | 70.1 µM | 29.4 µM | > 100 µM | 53.6 µM
CCCn1c(N)c(C(=O)N/N=C(/C)c2cc3cccc(OC)c3o2)sc1=S | > 100 µM | > 100 µM | 0.0161 | > 100 µM | 32.6 | > 100 | 27.4 µM | 78.8 µM | 49.7 µM | > 100 µM | – | 17.7 µM | 69.9 µM | 8.66 µM | > 100 µM | 77.5 µM | > 100 µM | 18.3 µM | 55.5 µM | –
